US8895733B2 (Novartis AG, priority 2010, dated 2014)

Target: T1, Nav 1.7 (Homo sapiens, UniProt Q15858)
T1 construct: expressed in transfected cells
Assay: Whole-cell voltage clamp electrophysiology, automated patch clamp (marker c in Table of Examples)
Format: cell-based
Conditions: marker c = Automated patch clamp data; read-out: Nav 1.7 activity
Summary of the method: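 Human NaV1.7 currents were recorded by whole-cell automated patch clamp, on IonWorks Quattro or another automated platform, typically in perforated-patch configuration. The stimulus protocol was designed to probe block mainly of the inactivated state, with a typical sweep stepping from about −65 mV holding to −10 mV, then −100 mV.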

T1 sequence (Q15858 whole entry): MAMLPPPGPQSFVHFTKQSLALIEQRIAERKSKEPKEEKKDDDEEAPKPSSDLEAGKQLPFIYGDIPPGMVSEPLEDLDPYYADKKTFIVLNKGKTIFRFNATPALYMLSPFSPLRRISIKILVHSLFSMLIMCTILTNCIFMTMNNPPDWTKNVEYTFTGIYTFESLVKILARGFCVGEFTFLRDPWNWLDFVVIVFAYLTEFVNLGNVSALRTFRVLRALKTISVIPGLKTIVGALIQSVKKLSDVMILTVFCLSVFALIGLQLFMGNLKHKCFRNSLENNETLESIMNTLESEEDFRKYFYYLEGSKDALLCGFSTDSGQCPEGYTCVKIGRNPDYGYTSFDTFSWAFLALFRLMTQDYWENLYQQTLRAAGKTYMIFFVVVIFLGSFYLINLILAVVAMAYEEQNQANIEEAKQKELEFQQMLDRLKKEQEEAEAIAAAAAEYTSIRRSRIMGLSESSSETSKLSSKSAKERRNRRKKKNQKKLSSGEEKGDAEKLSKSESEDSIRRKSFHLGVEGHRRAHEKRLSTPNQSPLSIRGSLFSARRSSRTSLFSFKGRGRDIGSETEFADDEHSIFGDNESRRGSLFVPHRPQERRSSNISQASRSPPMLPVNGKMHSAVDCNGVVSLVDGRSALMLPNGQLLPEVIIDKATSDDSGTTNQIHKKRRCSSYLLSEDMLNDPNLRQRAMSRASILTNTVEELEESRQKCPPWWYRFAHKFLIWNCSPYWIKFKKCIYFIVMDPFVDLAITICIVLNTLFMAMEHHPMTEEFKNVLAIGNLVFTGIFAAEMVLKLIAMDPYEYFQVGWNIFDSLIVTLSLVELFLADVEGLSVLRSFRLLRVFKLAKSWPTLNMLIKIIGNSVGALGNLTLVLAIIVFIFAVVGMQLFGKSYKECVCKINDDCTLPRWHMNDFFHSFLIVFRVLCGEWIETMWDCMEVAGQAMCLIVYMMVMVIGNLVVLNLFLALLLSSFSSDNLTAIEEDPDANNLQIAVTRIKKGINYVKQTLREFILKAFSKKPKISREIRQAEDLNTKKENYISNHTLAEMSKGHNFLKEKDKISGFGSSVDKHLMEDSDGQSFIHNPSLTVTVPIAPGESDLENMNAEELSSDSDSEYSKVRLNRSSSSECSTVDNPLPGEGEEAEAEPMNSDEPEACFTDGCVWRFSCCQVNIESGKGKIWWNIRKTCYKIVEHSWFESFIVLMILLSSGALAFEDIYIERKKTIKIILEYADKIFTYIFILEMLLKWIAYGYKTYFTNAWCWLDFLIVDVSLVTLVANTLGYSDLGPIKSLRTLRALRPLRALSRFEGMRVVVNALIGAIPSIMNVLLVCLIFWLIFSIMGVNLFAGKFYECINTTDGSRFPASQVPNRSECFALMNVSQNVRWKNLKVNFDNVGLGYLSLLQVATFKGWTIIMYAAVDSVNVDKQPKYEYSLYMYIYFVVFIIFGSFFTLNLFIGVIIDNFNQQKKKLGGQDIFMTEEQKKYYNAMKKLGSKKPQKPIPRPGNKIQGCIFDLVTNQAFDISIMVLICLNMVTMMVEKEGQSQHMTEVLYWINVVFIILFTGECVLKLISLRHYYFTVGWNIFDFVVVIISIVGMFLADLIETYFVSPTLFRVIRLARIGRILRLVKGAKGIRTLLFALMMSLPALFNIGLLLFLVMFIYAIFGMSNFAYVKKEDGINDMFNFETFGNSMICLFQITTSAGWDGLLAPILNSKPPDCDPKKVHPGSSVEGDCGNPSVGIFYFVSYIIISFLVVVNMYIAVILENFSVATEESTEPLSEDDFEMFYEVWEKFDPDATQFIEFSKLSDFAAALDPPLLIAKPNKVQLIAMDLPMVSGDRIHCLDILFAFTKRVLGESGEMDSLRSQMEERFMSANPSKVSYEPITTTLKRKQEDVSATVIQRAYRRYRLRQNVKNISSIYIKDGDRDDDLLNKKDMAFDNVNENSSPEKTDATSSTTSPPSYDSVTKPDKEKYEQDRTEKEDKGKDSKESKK

SMILES | IC50
CN(c1ccccc1)c1nc(N)nc(-c2noc(-c3ccc4c(c3)COC4)n2)n1 [Example 306, 6-(5-(1,3-dihydro-2-benzofuran-5-yl)-1,2,4-oxadiazol-3-yl]-2-N-methyl-2-N-phenyl-1,3,5-triazine-2,4-diamine] | 2670 nM
CCCS(=O)(=O)N1CC(c2nc(-c3nc(N)nc(N(C)c4ccccc4)n3)no2)C1 [Example 307, 2-N-methyl-2-N-phenyl-6-{5-[1-(propane-1-sulfonyl)azetidin-3-yl]-1,2,4-oxadiazol-3-yl}-1,3,5-triazine-2,4-diamine] | 8050 nM
CC(C)S(=O)(=O)N1CC(c2nc(-c3nc(N)nc(N(C)c4ccccc4)n3)no2)C1 [Example 308, 2-N-methyl-2-N-phenyl-6-{5-[1-(propane-2-sulfonyl)azetidin-3-yl]-1,2,4-oxadiazol-3-yl}-1,3,5-triazine-2,4-diamine] | 8770 nM
CCS(=O)(=O)N1CC(c2nc(-c3nc(N)nc(N(C)c4ccccc4)n3)no2)C1 [Example 309, 6-{5-[1-(ethanesulfonyl)azetidin-3-yl]-1,2,4-oxadiazol-3-yl}-2-N-methyl-2-N-phenyl-1,3,5-triazine-2,4-diamine] | 1730 nM
CN(c1ccccc1)c1nc(N)nc(-c2noc(C3CN(S(=O)(=O)CC(F)(F)F)C3)n2)n1 [Example 310, 2-N-methyl-2-N-phenyl-6-(5-{1-[(2,2,2-trifluoroethane)sulfonyl]azetidin-3-yl}-1,2,4-oxadiazol-3-yl)-1,3,5-triazine-2,4-diamine] | 968 nM
COCCN(c1ccccc1)c1nc(N)nc(-c2noc(-c3ccc(C(=O)OC)nc3)n2)n1 [Example 311, methyl 5-(3-{4-amino-6-[(2-methoxyethyl)(phenyl)amino]-1,3,5-triazin-2-yl}-1,2,4-oxadiazol-5-yl)pyridine-2-carboxylate] | 451 nM
COCCN(c1ccccc1)c1nc(N)nc(-c2noc(-c3ccc(COCC(F)(F)F)nc3)n2)n1 [Example 312, 2-N-(2-Methoxyethyl)-2-N-phenyl-6-(5-{6-[(2,2,2-trifluoroethoxy)methyl]pyridin-3-yl}-1,2,4-oxadiazol-3-yl)-1,3,5-triazine-2,4-diamine] | 139 nM
CN(c1ccccc1)c1nc(N)nc(-c2noc(C3CN(S(=O)(=O)c4ccccc4)C3)n2)n1 [Example 313, 6-{5-[1-(benzenesulfonyl)azetidin-3-yl]-1,2,4-oxadiazol-3-yl}-2-N-methyl-2-N-phenyl-1,3,5-triazine-2,4-diamine] | 4860 nM
CN(c1ccccc1)c1nc(N)nc(-c2noc(C3CN(CC(F)(F)F)C3)n2)n1 [Example 314, 2-N-Methyl-2-N-phenyl-6-{5-[1-(2,2,2-trifluoroethyl)azetidin-3-yl]-1,2,4-oxadiazol-3-yl}-1,3,5-triazine-2,4-diamine] | 3070 nM
CN(c1ccccc1)c1nc(N)nc(-c2noc(-c3ccc(CCC(F)(F)F)nc3)n2)n1 [Example 315, 2-N-methyl-2-N-phenyl-6-{5-[6-(3,3,3-trifluoropropyl)pyridin-3-yl]-1,2,4-oxadiazol-3-yl}-1,3,5-triazine-2,4-diamine] | 170 nM
CN(c1ccccc1)c1nc(N)nc(-c2noc(-c3ccc(CSCC(F)(F)F)nc3)n2)n1 [Example 316, 2-N-methyl-2-N-phenyl-6-[5-(6-{[(2,2,2-trifluoroethyl)sulfanyl]methyl}pyridin-3-yl)-1,2,4-oxadiazol-3-yl]-1,3,5-triazine-2,4-diamine] | 13 nM
CN(c1ccccc1)c1nc(N)nc(-c2noc(-c3ccc(C[S+]([O-])CC(F)(F)F)nc3)n2)n1 (stereo not shown) [Example 317, 2-N-Methyl-2-N-phenyl-6-[5-(6-{[(2,2,2-trifluoroethane)sulfinyl]methyl}pyridin-3-yl)-1,2,4-oxadiazol-3-yl]-1,3,5-triazine-2,4-diamine] | 2770 nM
CN(c1ccccc1)c1nc(N)nc(-c2noc(-c3ccc(SCC(F)(F)F)nc3)n2)n1 [Example 318, 2-N-methyl-2-N-phenyl-6-(5-{6-[(2,2,2-trifluoroethyl)sulfanyl]pyridin-3-yl}-1,2,4-oxadiazol-3-yl)-1,3,5-triazine-2,4-diamine] | 1890 nM
Nc1nc(Nc2ccccc2)nc(-c2noc(-c3ccc(CCC(F)(F)F)nc3)n2)n1 [Example 319, 2-N-phenyl-6-{5-[6-(3,3,3-trifluoropropyl)pyridin-3-yl]-1,2,4-oxadiazol-3-yl}-1,3,5-triazine-2,4-diamine] | 150 nM
CN(c1ccccc1)c1nc(N)nc(-c2noc(-c3ccc(CS(=O)(=O)CC(F)(F)F)nc3)n2)n1 [Example 321, 2-N-methyl-2-N-phenyl-6-[5-(6-{[(2,2,2-trifluoroethane)sulfonyl]methyl}pyridin-3-yl)-1,2,4-oxadiazol-3-yl]-1,3,5-triazine-2,4-diamine] | 149 nM
CN(c1ccccc1)c1nc(N)nc(-c2noc(C(=O)N3CCC(=CCC(F)(F)F)CC3)n2)n1 [Example 322, 2-N-methyl-2-N-phenyl-6-(5-{[4-(3,3,3-trifluoropropylidene)piperidin-1-yl]carbonyl}-1,2,4-oxadiazol-3-yl)-1,3,5-triazine-2,4-diamine] | 3270 nM
CN(c1ccccc1)c1nc(N)nc(-c2noc(N3Cc4cncnc4C3)n2)n1 [Example 323, 2-N-Methyl-2-N-phenyl-6-(5-{5H,6H,7H-pyrrolo[3,4-d]pyrimidin-6-yl}-1,2,4-oxadiazol-3-yl)-1,3,5-triazine-2,4-diamine] | 6450 nM
CN(c1ccccc1)c1nc(N)nc(-c2noc(N3CCC(=CCC(F)(F)F)CC3)n2)n1 [Example 324, 2-N-Methyl-2-N-phenyl-6-{5-[4-(3,3,3-trifluoropropylidene)piperidin-1-yl]-1,2,4-oxadiazol-3-yl}-1,3,5-triazine-2,4-diamine] | 2360 nM
Nc1nc(Nc2cc(Cl)ccc2F)nc(-c2noc(-c3ccccn3)n2)n1 [Example 325, 2-N-(5-chloro-2-fluorophenyl)-6-[5-(pyridin-2-yl)-1,2,4-oxadiazol-3-yl]-1,3,5-triazine-2,4-diamine] | 435 nM
CN(c1ccccc1)c1nc(N)nc(-c2noc(-c3ccc(NCC(F)(F)F)nc3)n2)n1 [Example 327, 2-N-Methyl-2-N-phenyl-6-(5-{6-[(2,2,2-trifluoroethyl)amino]pyridin-3-yl}-1,2,4-oxadiazol-3-yl)-1,3,5-triazine-2,4-diamine] | 1860 nM
CN(c1ccccc1)c1nc(N)nc(-c2noc(-c3ccc(NC4CCOC4)nc3)n2)n1 (stereo not shown) [Example 328, 2-N-methyl-6-(5-{6-[(oxolan-3-yl)amino]pyridin-3-yl}-1,2,4-oxadiazol-3-yl)-2-N-phenyl-1,3,5-triazine-2,4-diamine] | 7960 nM
CN(c1ccccc1)c1nc(N)nc(-c2noc(-c3ccc(OC4CCC4)nc3)n2)n1 [Example 331, 6-[5-(6-cyclobutoxypyridin-3-yl)-1,2,4-oxadiazol-3-yl]-2-N-methyl-2-N-phenyl-1,3,5-triazine-2,4-diamine] | 140 nM

The next lines start with the values.

IC50 | SMILES
894 nM | COCCOc1ccc(-c2nc(-c3nc(N)nc(N(C)c4ccccc4)n3)no2)cn1 [Example 329, 6-{5-[6-(2-methoxyethoxy)pyridin-3-yl]-1,2,4-oxadiazol-3-yl}-2-N-methyl-2-N-phenyl-1,3,5-triazine-2,4-diamine]
9210 nM | CN(c1ccccc1)c1nc(N)nc(-c2noc(-c3ccc(OCC#N)nc3)n2)n1 [Example 330, 2-{[5-(3-{4-Amino-6-[methyl(phenyl)amino]-1,3,5-triazin-2-yl}-1,2,4-oxadiazol-5-yl)pyridin-2-yl]oxy}acetonitrile]
1110 nM | CC(C)Nc1ccc(-c2nc(-c3nc(N)nc(N(C)c4ccccc4)n3)no2)cn1 [Example 332, 2-N-Methyl-2-N-phenyl-6-(5-{6-[(propan-2-yl)amino]pyridin-3-yl}-1,2,4-oxadiazol-3-yl)-1,3,5-triazine-2,4-diamine]
126 nM | CN(c1ccccc1)c1nc(N)nc(-c2noc(-c3ccc(NCC4CC4)nc3)n2)n1 [Example 333, 6-(5-{6-[(cyclopropylmethyl)amino]pyridin-3-yl}-1,2,4-oxadiazol-3-yl)-2-N-methyl-2-N-phenyl-1,3,5-triazine-2,4-diamine]
8450 nM | CN(c1ccccc1)c1nc(N)nc(-c2noc(-c3ccc(=O)[nH]c3)n2)n1 [Example 334, 5-(3-{4-amino-6-[methyl(phenyl)amino]-1,3,5-triazin-2-yl}-1,2,4-oxadiazol-5-yl)-1,2-dihydropyridin-2-one]
255 nM | CN(c1ccccc1)c1nc(N)nc(-c2noc(N3CCC(Oc4ccccc4)CC3)n2)n1 [Example 336, 2-N-methyl-6-[5-(4-phenoxypiperidin-1-yl)-1,2,4-oxadiazol-3-yl]-2-N-phenyl-1,3,5-triazine-2,4-diamine]
7800 nM | CN(c1ccccc1)c1nc(N)nc(-c2noc(N[C@H]3CC[C@H](OCC(F)(F)F)CC3)n2)n1 [Example 337]
597 nM | CN(c1ccccc1)c1nc(N)nc(-c2noc(N3CCC(OCc4ccccc4)CC3)n2)n1 [Example 338, 6-{5-[4-(benzyloxy)piperidin-1-yl]-1,2,4-oxadiazol-3-yl}-2-N-methyl-2-N-phenyl-1,3,5-triazine-2,4-diamine]
107 nM | CN(c1ccccc1)c1nc(N)nc(-c2noc(-c3ccc4c(c3)CCO4)n2)n1 [Example 339, 6-[5-(2,3-dihydro-1-benzofuran-5-yl)-1,2,4-oxadiazol-3-yl]-2-N-methyl-2-N-phenyl-1,3,5-triazine-2,4-diamine]
818 nM | CN(c1ccccc1)c1nc(N)nc(-c2noc(-c3ccc(OCC(F)(F)F)cn3)n2)n1 [Example 340, 2-N-methyl-2-N-phenyl-6-{5-[5-(2,2,2-trifluoroethoxy)pyridin-2-yl]-1,2,4-oxadiazol-3-yl}-1,3,5-triazine-2,4-diamine]
2030 nM | Cc1cnc(-c2nc(-c3nc(N)nc(N(C)c4ccccc4)n3)no2)s1 [Example 342]
195 nM | Nc1nc(Nc2cc(F)ccc2F)nc(-c2noc(-c3ccc(OCC(F)(F)F)nc3)n2)n1 [Example 343, 2-N-(2,5-difluorophenyl)-6-{5-[6-(2,2,2-trifluoroethoxy)pyridin-3-yl]-1,2,4-oxadiazol-3-yl}-1,3,5-triazine-2,4-diamine]
